PubChem BioAssay AID2060622 (Molecular Pharmacology Branch, DTP, NCI, 2025)
One block for each compound: values may come before it.

Tested on: 242566-281-R-J2-PDC complex spheroid viability
Test: Anticancer human tumor 242566-281-R-J2-PDC patient-derived pancreatic carcinoma cell line growth inhibition [CLK]
Details: for IC50: curve of first compound; for viability, T/C: stronger effect = lower value
Summary of the method: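 Patient-derived tumor cells grown as complex spheroids with HUVEC endothelial cells and mesenchymal stem cells, treated with drug combinations. Concentrations descend in half-log steps from near clinical Cmax, or from 10 microM if Cmax unknown.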

[1] = second compound 0.0316 µM, first compound 0.0316 µM
[2] = second compound 0.0316 µM, first compound 0.1 µM
[3] = second compound 0.0316 µM, first compound 0.316 µM
[4] = second compound 0.0316 µM, first compound 1 µM
[5] = second compound 0.0316 µM, first compound 3.16 µM
[6] = second compound 0.0316 µM, first compound 10 µM
[7] = second compound 0.1 µM, first compound 0.0316 µM
[8] = second compound 0.1 µM, first compound 0.1 µM
[9] = second compound 0.1 µM, first compound 0.316 µM
[10] = second compound 0.1 µM, first compound 1 µM
[11] = second compound 0.1 µM, first compound 3.16 µM
[12] = second compound 0.1 µM, first compound 10 µM
[13] = second compound 0.316 µM, first compound 0.0316 µM
[14] = second compound 0.316 µM, first compound 0.1 µM
[15] = second compound 0.316 µM, first compound 0.316 µM
[16] = second compound 0.316 µM, first compound 1 µM
[17] = second compound 0.316 µM, first compound 3.16 µM
[18] = second compound 0.316 µM, first compound 10 µM
[19] = second compound 1 µM, first compound 0.0316 µM
[20] = second compound 1 µM, first compound 0.1 µM
[21] = second compound 1 µM, first compound 0.316 µM
[22] = second compound 1 µM, first compound 1 µM
[23] = second compound 1 µM, first compound 3.16 µM
[24] = second compound 1 µM, first compound 10 µM
[25] = second compound 3.16 µM, first compound 0.0316 µM
[26] = second compound 3.16 µM, first compound 0.1 µM
[27] = second compound 3.16 µM, first compound 0.316 µM
[28] = second compound 3.16 µM, first compound 1 µM
[29] = second compound 3.16 µM, first compound 3.16 µM
[30] = second compound 3.16 µM, first compound 10 µM
[31] = second compound 10 µM, first compound 0.0316 µM
[32] = second compound 10 µM, first compound 0.1 µM
[33] = second compound 10 µM, first compound 0.316 µM
[34] = second compound 10 µM, first compound 1 µM
[35] = second compound 10 µM, first compound 3.16 µM
[36] = second compound 10 µM, first compound 10 µM
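Note: spheroids exposed to compounds for 7 days before readout.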
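Throughout, for viability, T/C: 100% = DMSO vehicle control wells.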

IC50 (second compound 0.0316 µM): > 10 µM
IC50 (second compound 0.1 µM): > 10 µM
IC50 (second compound 0.316 µM): > 10 µM
IC50 (second compound 1 µM): 1.91 µM
IC50 (second compound 3.16 µM): 0.129 µM
IC50 (second compound 10 µM): < 0.0316 µM
Compound: COc1ccc([C@@H](O)c2cc(-c3ncnc4cc(N5CCOCC5)ccc34)c(F)cc2Cl)nn1 + CNC(=O)c1ccc(Nc2nc(OC3CCCC3)c3c(-c4ccc5nc(C)oc5c4)c[nH]c3n2)c(OC)c1
viability, T/C [1]: 106%
viability, T/C [2]: 96.5%
viability, T/C [3]: 89.5%
viability, T/C [4]: 141%
viability, T/C [5]: 92.4%
viability, T/C [6]: 66.4%
viability, T/C [7]: 88.9%
viability, T/C [8]: 103%
viability, T/C [9]: 89.7%
viability, T/C [10]: 102%
viability, T/C [11]: 89.2%
viability, T/C [12]: 69.9%
viability, T/C [13]: 91.7%
viability, T/C [14]: 85.7%
viability, T/C [15]: 72%
viability, T/C [16]: 81.1%
viability, T/C [17]: 76.9%
viability, T/C [18]: 55%
viability, T/C [19]: 69.2%
viability, T/C [20]: 62.6%
viability, T/C [21]: 57.7%
viability, T/C [22]: 51.6%
viability, T/C [23]: 53.1%
viability, T/C [24]: 36.3%
viability, T/C [25]: 54.5%
viability, T/C [26]: 51.9%
viability, T/C [27]: 47.2%
viability, T/C [28]: 39.9%
viability, T/C [29]: 40.2%
viability, T/C [30]: 33.5%
viability, T/C [31]: 51.3%
viability, T/C [32]: 47.5%
viability, T/C [33]: 46.5%
viability, T/C [34]: 43.2%
viability, T/C [35]: 41.9%
viability, T/C [36]: 32.5%

IC50 (second compound 0.0316 µM): 0.185 µM
IC50 (second compound 0.1 µM): 0.159 µM
IC50 (second compound 0.316 µM): 0.102 µM
IC50 (second compound 1 µM): 0.0317 µM
IC50 (second compound 3.16 µM): < 0.0316 µM
IC50 (second compound 10 µM): < 0.0316 µM
Compound: COc1cccc2c1C(=O)c1c(O)c3c(c(O)c1C2=O)CC(O)(C(=O)CO)CC3OC1CC(N)C(O)C(C)O1 (centres undefined) + CNC(=O)c1ccc(Nc2nc(OC3CCCC3)c3c(-c4ccc5nc(C)oc5c4)c[nH]c3n2)c(OC)c1
viability, T/C [1]: 86.6%
viability, T/C [2]: 64.8%
viability, T/C [3]: 37%
viability, T/C [4]: 16.4%
viability, T/C [5]: 6.4%
viability, T/C [6]: 1.62%
viability, T/C [7]: 86.8%
viability, T/C [8]: 64.7%
viability, T/C [9]: 27.8%
viability, T/C [10]: 16%
viability, T/C [11]: 6.66%
viability, T/C [12]: 1.48%
viability, T/C [13]: 80.4%
viability, T/C [14]: 51.2%
viability, T/C [15]: 15.9%
viability, T/C [16]: 10.4%
viability, T/C [17]: 1.13%
viability, T/C [18]: 1.75%
viability, T/C [19]: 50.1%
viability, T/C [20]: 20.2%
viability, T/C [21]: 6.31%
viability, T/C [22]: 2.71%
viability, T/C [23]: 1.6%
viability, T/C [24]: 1.45%
viability, T/C [25]: 37.1%
viability, T/C [26]: 11.2%
viability, T/C [27]: 3.77%
viability, T/C [28]: 1.91%
viability, T/C [29]: 1.71%
viability, T/C [30]: 1.85%
viability, T/C [31]: 31.5%
viability, T/C [32]: 10.5%
viability, T/C [33]: 3.98%
viability, T/C [34]: 1.91%
viability, T/C [35]: 1.68%
viability, T/C [36]: 2.07%
